Experiments:
MCF-7 = assay: monolayer proliferation assay, modified propidium iodide assay; assay type: cell-based, human; settings: MCF-7 (breast), 4 days continuous exposure
Experimental: (§1) In vitro evaluation of compounds for anticancer activity in a panel of human tumour cell lines in a monolayer proliferation assay was carried out at the Oncotest Testing Facility, Institute for Experimental Oncology, Oncotest GmbH, Freiburg.
(§2) The Oncotest cell lines are established from human tumor xenografts as described by Roth et al., (1999). The origin of the donor xenografts was described by Fiebig et al., (1999). Other cell lines are either obtained from the NCI (DU145, MCF-7) or purchased from DSMZ, Braunschweig, Germany.
(§3) All cell lines, unless otherwise specified, were grown at 37° C. in a humidified atmosphere (95% air, 5% CO2) in a ‘ready-mix’ medium containing RPMI 1640 medium, 10% fetal calf serum, and 0.1 mg/mL gentamicin (PAA, Cölbe, Germany).
(§4) A modified propidium iodide assay was used to assess the effects of the test compound(s) on the growth of human tumour cell lines (Dengler et al., (1995)).
(§5) Briefly, cells were harvested from exponential phase cultures by trypsinization, counted and plated in 96 well flat-bottomed microtitre plates at a cell density dependent on the cell line (5-10.000 viable cells/well). After 24 h recovery to allow the cells to resume exponential growth, 0.010 mL of culture medium (6 control wells per plate) or culture medium containing the 11-O-desmethylmacbecin analogue were added to the wells. Each concentration was plated in triplicate. Compounds were applied in two concentrations (1 μg/mL and 10 μg/mL). Following 4 days of continuous exposure, cell culture medium with or without test compound was replaced by 0.2 mL of an aqueous propidium iodide (PI) solution (7 mg/L). To measure the proportion of living cells, cells were permeabilized by freezing the plates. After thawing the plates, fluorescence was measured using the Cytofluor 4000 microplate reader (excitation 530 nm, emission 620 nm), giving a direct relationship to the total number of viable cells. Growth inhibition was expressed as treated/control×100 (% T/C).
(§6) In vitro evaluation of the test compounds for anticancer activity in a panel of human tumour cell lines in a monolayer proliferation assay was carried out as described in the general methods using a modified propidium iodide assay.

CNXF 498NL = assay: as above; assay type: cell-based, human; settings: CNXF 498NL (CNS), 4 days continuous exposure
Experimental: as §1, §2, §3, §4, §5, §6

DU145 = assay: as above; assay type: cell-based, human; settings: DU145 (prostate, PTEN positive), 4 days continuous exposure
Experimental: as §1, §2, §3, §4, §5, §6

LXF 1121L = assay: as above; assay type: cell-based, human; settings: LXF 1121L (lung, large cell ca), 4 days continuous exposure
Experimental: as §1, §2, §3, §4, §5, §6

MEXF 394NL = assay: as above; assay type: cell-based, human; settings: MEXF 394NL (melanoma), 4 days continuous exposure
Experimental: as §1, §2, §3, §4, §5, §6

CXF HT29 = assay: as above; assay type: cell-based, human; settings: CXF HT29 (colon), 4 days continuous exposure
Experimental: as §1, §2, §3, §4, §5, §6

Reverse transcriptase = settings: cited from earlier work
[1] = target: terminal deoxynucleotidyl transferase (Homo sapiens, UniProt P04053); settings: cited from earlier work
Hsp90 = Hsp90 (Homo sapiens, UniProt P07900); settings: cited from earlier work

Chain of terminal deoxynucleotidyl transferase (P04053 whole entry, species assumed): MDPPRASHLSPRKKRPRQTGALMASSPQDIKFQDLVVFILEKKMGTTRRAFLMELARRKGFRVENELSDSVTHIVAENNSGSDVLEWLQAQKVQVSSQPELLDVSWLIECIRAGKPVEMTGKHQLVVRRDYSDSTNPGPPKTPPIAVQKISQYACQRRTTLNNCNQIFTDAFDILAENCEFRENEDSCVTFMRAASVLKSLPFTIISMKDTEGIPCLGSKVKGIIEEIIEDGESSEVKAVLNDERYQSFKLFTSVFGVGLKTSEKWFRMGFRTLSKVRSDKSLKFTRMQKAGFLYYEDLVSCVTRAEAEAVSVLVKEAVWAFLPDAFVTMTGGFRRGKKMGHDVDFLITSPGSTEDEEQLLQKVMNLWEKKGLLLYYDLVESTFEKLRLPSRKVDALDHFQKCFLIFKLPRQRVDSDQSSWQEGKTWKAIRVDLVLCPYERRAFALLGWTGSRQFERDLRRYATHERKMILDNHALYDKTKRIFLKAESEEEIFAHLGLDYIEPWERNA

Row | Structure (SMILES) | Test/Control (%) at drug concentration (MCF-7; 1 μg/mL) | Test/Control (%) at drug concentration (MCF-7; 10 μg/mL) | Test/Control (%) at drug concentration (CNXF 498NL; 1 μg/mL) | Test/Control (%) at drug concentration (CNXF 498NL; 10 μg/mL) | Test/Control (%) at drug concentration (DU145; 1 μg/mL) | Test/Control (%) at drug concentration (DU145; 10 μg/mL) | Test/Control (%) at drug concentration (LXF 1121L; 1 μg/mL) | Test/Control (%) at drug concentration (LXF 1121L; 10 μg/mL) | Test/Control (%) at drug concentration (MEXF 394NL; 1 μg/mL) | Test/Control (%) at drug concentration (MEXF 394NL; 10 μg/mL) | Test/Control (%) at drug concentration (CXF HT29; 1 μg/mL) | Test/Control (%) at drug concentration (CXF HT29; 10 μg/mL) | inhibition of reverse transcriptase activity (Reverse transcriptase) | inhibition of terminal deoxynucleotidyl transferase activity [1] | binding affinity to Hsp90, greater than 17-AAG (Hsp90; relative to 17-AAG) | binding affinity to Hsp90, greater than geldanamycin (Hsp90; relative to geldanamycin)
1 | CO[C@H]1C[C@H](C)[C@@H](O)C2=CC(=O)C=C(NC(=O)/C(C)=C/C=C\[C@H](C)[C@@H](OC(N)=O)/C(C)=C/[C@H](C)[C@H]1O)C2=O [compound 14, 11-O-desmethyl-15-O-desmethylmacbecin] | 83.7% | 58.7% | 82.7% | 45.3% | 78.7% | 35% | 83.3% | 57.7% | 50.7% | 77% | 88.7% | 55% | – | – | – | –
2 | CO[C@H]1[C@@H](OC)C[C@H](C)[C@@H](OC)C2=CC(=O)C=C(NC(=O)/C(C)=C/C=C\[C@H](C)[C@@H](OC(N)=O)/C(C)=C/[C@@H]1C)C2=O [Macbecin, macbecin, reference compound] | 42% | 19% | 29% | 14% | 13% | 5% | 30% | 17% | 16% | 13% | 22% | 8% | not inhibited | not inhibited | – | –
3 | CO[C@H]1C[C@H](C)Cc2cc(O)cc(c2)NC(=O)/C=C/CC[C@H](OC)[C@@H](OC(N)=O)/C(C)=C/[C@H](C)[C@H]1O [KOSN1559] | – | – | – | – | – | – | – | – | – | – | – | – | – | – | 8 fold | 4 fold
4 | CO[C@H]1C[C@H](C)CC2=CC(=O)C=C(NC(=O)/C(C)=C/C=C\[C@H](C)[C@@H](OC(N)=O)/C(C)=C/[C@H](C)[C@H]1O)C2=O [compound 15, 11-O-desmethyl-15-desmethoxymacbecin] | 49.3% | 13.7% | 30% | 9% | 16.3% | 6% | 57.7% | 11.7% | 22% | 5% | 37.7% | 9% | – | – | – | –
5 | CO[C@H]1C[C@H](C)CC2=CC(=O)C=C(NC(=O)/C(C)=C/CC[C@H](C)[C@@H](OC(N)=O)/C(C)=C/[C@H](C)[C@H]1O)C2=O [compound 17, 4,5-dihydro-11-O-desmethyl-15-desmethoxymacbecin] | 35% | 5% | 35% | 8% | 18% | 5% | 55% | 17% | 38% | 4% | 52% | 6% | – | – | – | –
